Here are results for 11 molecules from US8546440B2, “Substituted bicyclic imidazole derivatives as gamma secretase modulators” (Janssen Pharmaceuticals, Inc., priority 2008, dated 2013).

A word on the melting point: it is the temperature of the solid-liquid transition. For orientation: IC50 means the concentration needed to halve the response being measured. High values mean lower potency, low ones higher potency.

The subject of data set [1] is Aβ42. Kind of data set: Screening for γ-secretase-modulating activity, Method 1: Aβ42 sandwich ELISA in supernatant of SKNBE2 cells carrying APP 695 wild type (Tables 12a, 12b). The class given is cell-based. The method in brief: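 SKNBE2 cells expressing wild-type APP695 were treated with compound for 18 h, and secreted Aβ42 in the medium was quantified by sandwich ELISA (C-terminal-selective capture, biotinylated 3D6 detection, TMB read at 450 nm). IC50 came from 4-parameter fits of % inhibition or % of untreated control; toxicity was checked by WST-1.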
In general terms: An ELISA detects its analyte on a solid surface through an enzyme-linked reagent.

Data set [2] concerns Aβtotal. Kind of data set: Screening for γ-secretase-modulating activity, Method 1: Aβtotal sandwich ELISA in supernatant of SKNBE2 cells carrying APP 695 wild type (Tables 12a, 12b). It is filed as cell-based. The method in brief: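 SKNBE2 cells expressing wild-type APP 695 were plated a day ahead, then exposed to compound in Ultraculture with 1% glutamine for 18 hours. Supernatant Aβtotal captured on 6E10 overnight at 4° C, detected with biotinylated 4G8 and streptavidin-peroxidase with a fluorogenic substrate. IC50 from 4-parameter dose-response fits.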

Setting [3] is: Homo sapiens, Method 1, Table 12a, SKNBE2 cells carrying APP 695 wild type, compounds 18 hours, ELISA, curve top and bottom fixed to 100 and 0, hill slope 1.
Where [4] appears, read: Homo sapiens, Table 12b, Method 1, SKNBE2 cells carrying APP 695 wild type, cell supernatant ELISA, averaged IC50 values, percentage of control vs log concentration.
[5] abbreviates: Homo sapiens, Table 12b, Method 1, SKNBE2 cells carrying APP 695 wild type, cell supernatant ELISA, averaged IC50 values.

Each structure is given as a SMILES string. Some results are limits rather than exact numbers.

Molecule `COc1cc(Nc2cccn3c(C)c(-c4ccccc4)nc23)ccc1-n1cnc(C)c1` [Compound 5] had a melting point of 177.8 °C. In data set [1] (setting [3]), this molecule registered an IC50 of 14 nM. 12 nM corresponded to half-maximal inhibition in data set [1] (setting [4]) (IC50). Also, in data set [2] (setting [3]), the IC50 was > 1000 nM. In addition, the IC50 in data set [2] (setting [5]) is > 3020 nM.

For the molecule `COc1cc(Nc2cccn3cc(C)nc23)ccc1-n1cnc(C)c1` [Compound 50], the IC50 was 253 nM in data set [1] (setting [3]), 251 nM in data set [1] (setting [4]), > 3000 nM in data set [2] (setting [3]) and > 5010 nM in data set [2] (setting [5]).

For `COc1cc(Nc2cccn3c(C)c(-c4ccccc4C(F)(F)F)nc23)ccc1-n1cnc(C)c1` [Compound 29], the IC50 in data set [1] (setting [3]) was 10 nM; in data set [1] (setting [4]), 8 nM; in data set [2] (setting [3]), > 1000 nM; in data set [2] (setting [5]), > 10000 nM.

In the case of `COc1cc(Nc2cccn3c(C)c(-c4c(F)cccc4F)nc23)ccc1-n1cnc(C)c1` [Compound 27], the melting point was 198.2 °C. The molecule further returned an IC50 in data set [1] (setting [3]) of 25 nM. Also, the IC50 in data set [1] (setting [4]) worked out at 25 nM. In data set [2] (setting [3]), the IC50 was > 3000 nM. For the same molecule, the IC50 in data set [2] (setting [5]) is > 3020 nM.

For `Cc1ncn(-c2ccc(Nc3cccn4cc(-c5ccccc5C)nc34)cc2)n1` [Compound 71], the IC50 is 288 nM in data set [1] (setting [3]) and > 3000 nM in data set [2] (setting [3]).

On to `COc1cc(Nc2cccn3c(Cl)c(-c4ccc(F)cc4)nc23)ccc1-n1cnc(C)c1` [Compound 2], for which the melting point came to 168.9 °C. In data set [1] (setting [3]), inhibition was half-maximal at 65 nM (IC50). In data set [1] (setting [4]), this molecule registered an IC50 of 55 nM. In addition, the IC50 in data set [2] (setting [3]) was > 3000 nM. Further, the IC50 in data set [2] (setting [5]) was > 3020 nM.

For `COc1cccc(-c2cn3cccc(Nc4ccc(-n5cnc(C)c5)c(OC)c4)c3n2)c1` [Compound 33], the IC50 in data set [1] (setting [3]) was 31 nM; in data set [1] (setting [4]), 27 nM; in data set [2] (setting [3]), > 3000 nM; in data set [2] (setting [5]) it was > 3020 nM.

`COc1cc(Nc2cccn3cc(-c4ccc(F)cc4)nc23)ccc1-n1cnc(C)c1` [Compound 1] had a melting point of 209.2 °C. The same molecule registered an IC50 in data set [1] (setting [3]) of 101 nM. In data set [1] (setting [4]), this molecule registered an IC50 of 98 nM. The IC50 in data set [2] (setting [3]) is > 5000 nM. In addition, the IC50 in data set [2] (setting [5]) was > 5010 nM.

Molecule `COc1cc(Nc2cccn3c(C)c(-c4ccccc4Cl)nc23)ccc1-n1cnc(C)c1` [Compound 15] returned a melting point of 204 °C. Moreover, the IC50 in data set [1] (setting [3]) was 12 nM. The IC50 in data set [1] (setting [4]) came out at 11 nM. The IC50 in data set [2] (setting [3]) was > 3000 nM. In addition, the IC50 in data set [2] (setting [5]) was > 3020 nM.

As to `COc1cc(Nc2cccn3cc(C4CCOCC4)nc23)ccc1-n1cnc(C)c1` [Compound 4], the IC50 is 53 nM in data set [1] (setting [3]), 85 nM in data set [1] (setting [4]), > 3000 nM in data set [2] (setting [3]) and > 3020 nM in data set [2] (setting [5]).

For `COc1nc(Nc2cccn3c(C)c(-c4ccccc4C(F)(F)F)nc23)ccc1-n1cnc(C)c1` [Compound 138], the IC50 in data set [1] (Table 12b, Method 1, SKNBE2 cells carrying APP 695 wild type, cell supernatant ELISA, averaged IC50 values, percentage of control vs log concentration) was 9 nM; in data set [2] (Table 12b, Method 1, SKNBE2 cells carrying APP 695 wild type, cell supernatant ELISA, averaged IC50 values), > 3020 nM.
